Experiment: xn = mol fraction of the nth substance listed

CC[N+](CC)(CC)CC.[Cl-] + CC1(C)CC(O)CC(C)(C)N1[O] + O
Settings | electrical conductivity [S/m]
323.15 K, 100 kPa, frequency 0.001 MHz, x2 = 0, x1 = 0.2 | 4.1

CCCn1cc[n+](C)c1.[Br-] + CC1COC(=O)O1
298 K, 101 kPa
Settings | electrical conductivity [S/m]
x2 = 0.1 | 0.04
x2 = 0.64 | 0.5
x2 = 0.67 | 0.52
x2 = 0.72 | 0.58

CC[n+]1ccn(C)c1C.O=S(=O)([N-]S(=O)(=O)C(F)(F)F)C(F)(F)F + CC1COC(=O)O1
101.3 kPa
Settings | viscosity [mPa·s]
303.15 K, x1 = 0.203 | 5.35
303.15 K, x1 = 0.5825 | 20.07
313.15 K, x1 = 0.7004 | 19.96
318.15 K, x1 = 0.3994 | 7.33
318.15 K, x1 = 0.5149 | 10.82
318.15 K, x1 = 0.8032 | 21.86
323.15 K, x1 = 0.1025 | 2.411
323.15 K, x1 = 0.5149 | 9.41
323.15 K, x1 = 0.7004 | 15.48
328.15 K, x1 = 0.203 | 3.199
328.15 K, x1 = 0.8032 | 16.86
333.15 K, x1 = 0.3994 | 5.29
338.15 K, x1 = 0.3078 | 3.726
343.15 K, x1 = 0.3994 | 4.376
343.15 K, x1 = 0.5825 | 6.93
343.15 K, x1 = 0.8903 | 13.67
348.15 K, x1 = 0.1025 | 1.651
348.15 K, x1 = 0.7004 | 8.13

CCCCc1n(S(=O)(=O)O)cc[n+]1S(=O)(=O)O.O=C([O-])C(F)(F)F + CC#N
101 kPa
Settings | electrical conductivity [S/m]
278.15 K, x1 = 0.02551 | 1.24
283.15 K, x1 = 0.02551 | 1.19
288.15 K, x1 = 0.02551 | 1.07
293.15 K, x1 = 0.02551 | 0.944
298.15 K, x1 = 0.0052 | 0.359
298.15 K, x1 = 0.0104 | 0.425
298.15 K, x1 = 0.0155 | 0.554
298.15 K, x1 = 0.0205 | 0.632
298.15 K, x1 = 0.0255 | 0.899
298.15 K, x1 = 0.02551 | 0.899
303.15 K, x1 = 0.02551 | 0.665
308.15 K, x1 = 0.02551 | 0.646
313.15 K, x1 = 0.02551 | 0.545
318.15 K, x1 = 0.02551 | 0.521
323.15 K, x1 = 0.02551 | 0.468
328.15 K, x1 = 0.02551 | 0.457
333.15 K, x1 = 0.02551 | 0.423

CC[N+](CC)(CC)CC.[Cl-] + CC(=O)CCC(=O)O
101.3 kPa, x1 = 0.3333
Settings | viscosity [mPa·s]
298.15 K | 140
308.15 K | 83.8
318.15 K | 52.7
328.15 K | 33
338.15 K | 20.23

C[N+](C)(CCO)Cc1ccccc1.[Cl-] + CC(=O)CCC(=O)O
101.33 kPa, x1 = 0.3333
Settings | viscosity [mPa·s]
293.15 K | 2026
298.15 K | 1235
303.15 K | 785
308.15 K | 518
313.15 K | 353
318.15 K | 248
323.15 K | 179
328.15 K | 133
333.15 K | 101
338.15 K | 78
343.15 K | 61
348.15 K | 49
353.15 K | 40

CCCn1cc[n+](C)c1.[Br-] + CC(=O)N(C)C
298.15 K, 101 kPa
Settings | viscosity [mPa·s]
x1 = 0.01714 | 1.124
x2 = 0.9358 | 1.653
x2 = 0.9583 | 1.383

CCCC[n+]1ccn(C)c1.N#C[N-]C#N + CC(=O)[O-].[K+] + O
viscosity [mPa·s], 101 kPa
Settings | 298.15 K | 308.15 K | 318.15 K | 323.15 K
x2 = 0.1831, x3 = 0.8019 | 8.2 | 6 | – | –
x2 = 0.1943, x3 = 0.7933 | 10 | 7.2 | 5.4 | 4.815

CC(=O)[O-].CC[n+]1ccn(C)c1 + CC(=O)[O-].[NH4+]
323.15 K, 101 kPa, x2 = 0
Settings | electrical conductivity [S/m] | viscosity [mPa·s]
– | 0.918 | 35.7

CCCN + CC(C)(C)O + CCCCCC[n+]1ccn(C)c1.F[B-](F)(F)F
298.15 K, 101 kPa
Settings | viscosity [mPa·s]
x2 = 0.0474, x1 = 0.3489 | 46.28
x2 = 0.0483, x1 = 0.4517 | 28.58
x2 = 0.05, x1 = 0.0708 | 120.9
x2 = 0.05, x1 = 0.8998 | 0.723
x2 = 0.0508, x1 = 0.2562 | 66.1
x2 = 0.0508, x1 = 0.8482 | 1.318
x2 = 0.0525, x1 = 0.7484 | 3.959
x2 = 0.0529, x1 = 0.6504 | 8.74
x2 = 0.055, x1 = 0.5488 | 16.3
x2 = 0.0572, x1 = 0.1668 | 88.1
x2 = 0.1042, x1 = 0.1719 | 73.7
x2 = 0.1487, x1 = 0.0497 | 96.6
x2 = 0.1555, x1 = 0.1488 | 66.7
x2 = 0.247, x1 = 0.0423 | 72.1
x2 = 0.251, x1 = 0.3468 | 15.17
x2 = 0.3138, x1 = 0.0592 | 53
x2 = 0.3494, x1 = 0.5505 | 1.808
x2 = 0.3508, x1 = 0.5993 | 1.244
x2 = 0.3529, x1 = 0.349 | 7.072
x2 = 0.3545, x1 = 0.4468 | 2.923
x2 = 0.3596, x1 = 0.0184 | 53.2
x2 = 0.4492, x1 = 0.1454 | 18.61
x2 = 0.4496, x1 = 0.0492 | 32.35
x2 = 0.6483, x1 = 0.1509 | 7.984
x2 = 0.6496, x1 = 0.2508 | 4.06
x2 = 0.6511, x1 = 0.299 | 2.994
x2 = 0.6551, x1 = 0.0445 | 15.43
x2 = 0.7929, x1 = 0.1032 | 7.67
x2 = 0.8001, x1 = 0.15 | 5.198
x2 = 0.8965, x1 = 0.0518 | 7.226

CC[N+](CC)(CC)CC.[Cl-] + CCCCCCCCCC(=O)O
100 kPa, x1 = 0.333
Settings | electrical conductivity [S/m] | viscosity [mPa·s]
293.15 K | 0.0223 | 275
303.15 K | 0.0338 | 185
313.15 K | 0.0498 | 128
323.15 K | 0.0718 | 90
333.15 K | 0.101 | 64.9
